Where two headings read alike, the source gives them in different places.
Columns and labels:
[1] = target: TYK2 (Homo sapiens (Human), UniProt P29597); test: JAK Caliper Enzyme Assay at 1 mM ATP, TYK2; type: biochemical
Procedure, shortened: (§1)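 Inhibition is measured as reduced phosphorylation of a synthetic peptide by the recombinant human kinase domain at 1 mM ATP. Conditions give 20–30% conversion at room temperature before EDTA quench, and on-chip separation of labelled substrate and product yields percent conversion for dose–response plotting.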

[2] = target: JAK1 (Homo sapiens (Human), UniProt P23458); test: JAK Caliper Enzyme Assay at 1 mM ATP, JAK1; type: biochemical
Sequence of JAK1 (P23458 875-1153): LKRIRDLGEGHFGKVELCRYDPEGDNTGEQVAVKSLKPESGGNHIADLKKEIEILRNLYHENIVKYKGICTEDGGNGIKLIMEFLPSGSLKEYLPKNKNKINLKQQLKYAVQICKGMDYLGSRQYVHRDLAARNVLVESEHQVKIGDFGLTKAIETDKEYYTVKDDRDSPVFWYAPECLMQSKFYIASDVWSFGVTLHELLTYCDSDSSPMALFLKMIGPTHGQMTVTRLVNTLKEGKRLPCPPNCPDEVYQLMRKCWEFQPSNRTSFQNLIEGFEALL
Procedure, shortened: (§2)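 Recombinant human kinase domains phosphorylated a fluorescent synthetic peptide at room temperature, with enzyme level and time tuned to 20% to 30% conversion; EDTA stop buffer ended reactions. Mobility-shift separation gave percent product from peak heights, normalised to DMSO and positive controls, and IC50s came from concentration–effect curves.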

[3] = target: JAK2 (Homo sapiens (Human), UniProt O60674); test: JAK Caliper Enzyme Assay at 1 mM ATP, JAK2; type: biochemical
Sequence of JAK2 (O60674 849-1124): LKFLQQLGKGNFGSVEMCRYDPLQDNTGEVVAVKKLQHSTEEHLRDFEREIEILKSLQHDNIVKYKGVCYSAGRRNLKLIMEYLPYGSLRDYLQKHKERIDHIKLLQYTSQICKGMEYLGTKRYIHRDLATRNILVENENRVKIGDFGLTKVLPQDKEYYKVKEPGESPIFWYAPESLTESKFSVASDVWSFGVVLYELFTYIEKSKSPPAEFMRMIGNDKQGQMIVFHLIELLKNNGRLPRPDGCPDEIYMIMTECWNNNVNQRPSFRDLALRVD
Procedure, shortened: as §1

[4] = target: JAK3 (Homo sapiens (Human), UniProt P52333); test: JAK Caliper Enzyme Assay at 1 mM ATP, JAK3; type: biochemical
Sequence of JAK3 (P52333 822-1111): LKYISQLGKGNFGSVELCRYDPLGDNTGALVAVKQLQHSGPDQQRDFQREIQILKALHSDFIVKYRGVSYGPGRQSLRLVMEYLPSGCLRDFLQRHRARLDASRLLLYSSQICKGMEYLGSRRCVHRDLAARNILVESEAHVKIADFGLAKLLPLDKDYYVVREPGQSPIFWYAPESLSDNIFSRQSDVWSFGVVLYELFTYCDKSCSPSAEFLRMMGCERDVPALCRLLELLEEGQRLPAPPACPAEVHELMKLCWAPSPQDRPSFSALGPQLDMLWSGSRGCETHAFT
Procedure, shortened: as §2

[5] = tested on: IL-12 signaling (TYK2 and JAK2), STAT4 phosphorylation; test: Human Whole Blood IL-12 Induced STAT4 Phosphorylation Assay; type: cell-based; conditions: IL-12 5 ng/mL, pSTAT4 in lymphocytes by flow cytometry
Procedure: Selected compounds were assessed for their ability to inhibit IL-12 signaling in a human whole blood flow cytometry assay. IL-12 signals through TYK2 and JAK2.
Human Whole Blood IL-12 Induced STAT4 Phosphorylation Assay
Test articles were prepared as 30 mM stocks in DMSO. An 11-point 2.5 dilution series was created in DMSO with a top concentration of 10 mM. Further dilution was done by adding 4 μL of the above test article solutions into 96 μL of PBS with a top concentration of 400 μM. Human whole blood was collected from healthy donors via vein puncture into Vacutainer collection tubes containing sodium heparin (Catalog No. 366480; Becton Dickinson, Franklin Lakes, N.J.). Blood was warmed to 37° C. prior to use. Human whole blood was aliquoted ([…]) in 96-well, deep-well, V-bottom plates and treated with compounds at 11 different concentrations (0.2% DMSO final) at 37° C. for 60 minutes. This was followed by a challenge with IL-12 ([…]; final, 5 ng/mL) for 15 minutes. Samples were treated with warm 1× Lyse/Fix buffer ([…]) to terminate activation and further incubated at 37° C. for 20 minutes to lyse red blood cells. Plates were centrifuged at 300×g for 5 minutes, supernatant was aspirated, and cells were washed with […] of staining buffer (PBS containing 0.5% fetal bovine serum and 0.01% sodium azide). The washed cell pellets were resuspended with […] of pre-chilled 90% methanol, and incubated at 4° C. for 30 minutes. Plates were centrifuged at 300×g for 5 minutes, supernatant containing 90% methanol was aspirated, and cells were washed with […] of staining buffer. Cell pellets were resuspended in staining buffer containing anti-pSTAT4-AlexaFluor647 (1 to 150 dilution, […]), and incubated at room temperature in the dark overnight.
Samples were transferred to 96-well U-bottom plates and flow cytometric analysis was performed on a FACSCalibur or LSRFortessa equipped with a HTS plate loader (BD Biosciences). The lymphocyte population was gated for histogram analysis of pSTAT4. Background fluorescence was defined using unstimulated cells and a gate was placed at the foot of the peak to include ˜0.5% gated population. The histogram statistical analysis was performed using CellQuestÔ Pro version 5.2.1 (BD Biosciences) or FACSDiva version 6.2 (BD Biosciences) software. Relative fluorescence unit (RFU), which measures the level of phospho STAT4, was calculated by multiplying the percent positive population and its mean fluorescence. Data from 11 compound concentrations (singlicate at each concentration) was normalized as a percentage of control based on the formula: % of Control=100'(A−B)/(C−B) where A is the RFU from wells containing compound and IL-12, B is the RFU from wells without IL-12 and compound (minimum fluorescence) and C is the RFU from wells containing only IL-12 (maximum fluorescence). Inhibition curves and IC50 values were determined using the Prism version 5 software (GraphPad, La Jolla, Calif.).

Sequence of TYK2 (P29597 897-1176): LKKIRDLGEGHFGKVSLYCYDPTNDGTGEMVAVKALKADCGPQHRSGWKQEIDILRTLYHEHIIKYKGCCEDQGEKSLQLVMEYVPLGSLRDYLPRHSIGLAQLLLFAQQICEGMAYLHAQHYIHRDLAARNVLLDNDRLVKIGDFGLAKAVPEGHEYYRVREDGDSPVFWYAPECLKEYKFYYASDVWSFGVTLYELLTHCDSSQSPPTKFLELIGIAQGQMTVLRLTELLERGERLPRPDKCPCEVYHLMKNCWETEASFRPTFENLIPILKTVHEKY

## N#CC[C@]1(n2ccc(-c3nc(-c4cc(N)[nH]n4)cc4ncccc34)n2)C[C@H](C#N)C1 [Example 41, trans-3-{3-[7-(5-amino-1H-pyrazol-3-yl)-1,6-naphthyridin-5-yl]-1H-pyrazol-1-yl}-3-(cyanomethyl)cyclobutanecarbonitrile]
[1]
  IC50: 8 nM
[2]
  IC50: 14 nM
[3]
  IC50: 21 nM
[4]
  IC50: 1.24 µM
[5]
  IC50: 76 nM

## Cn1ncc(-c2cc3ncccc3c(-c3ccn([C@]4(CC#N)C[C@@H](C#N)C4)n3)n2)c1CO [Example 136, trans-3-(cyanomethyl)-3-(3-{7-[5-(hydroxymethyl)-1-methyl-1H-pyrazol-4-yl]-1,6-naphthyridin-5-yl}-1H-pyrazol-1-yl)cyclobutanecarbonitrile]
[1]
  IC50: 44 nM
[2]
  IC50: 618 nM
[3]
  IC50: 260 nM
[4]
  IC50: > 10 µM

## C[C@]1(C#N)C[C@@](CC#N)(n2ccc(-c3nc(-c4cc[nH]n4)cc4ncccc34)n2)C1 [Example 35, cis-3-(cyanomethyl)-1-methyl-3-{3-[7-(1H-pyrazol-3-yl)-1,6-naphthyridin-5-yl]-1H-pyrazol-1-yl}cyclobutanecarbonitrile]
[1]
  IC50: 44 nM
[2]
  IC50: 569 nM
[3]
  IC50: 339 nM
[4]
  IC50: > 10 µM

## CS(=O)(=O)N1CC(CC#N)(n2ncc(-c3cc(-c4ccc(F)c(CO)c4)cc4ncccc34)n2)C1 [Example 446, [3-(4-{7-[4-fluoro-3-(hydroxymethyl)phenyl]quinolin-5-yl}-2H-1,2,3-triazol-2-yl)-1-(methylsulfonyl)azetidin-3-yl]acetonitrile]
[1]; JAK Caliper enzyme assay
  IC50: 101 nM
[2]; JAK Caliper enzyme assay
  IC50: 4730 nM
[3]; JAK Caliper enzyme assay
  IC50: 964 nM
[4]; JAK Caliper enzyme assay
  IC50: > 10 µM

## Cc1ccn(-c2cc3ncccc3c(-c3ccn(C4(CC#N)CN(CC(F)(F)F)C4)n3)n2)n1 [Example 143, [3-{3-[7-(3-methyl-1H-pyrazol-1-yl)-1,6-naphthyridin-5-yl]-1H-pyrazol-1-yl}-1-(2,2,2-trifluoroethyl)azetidin-3-yl]acetonitrile]
[1]
  IC50: 767 nM
[2]
  IC50: > 10000 nM
[3]
  IC50: 6670 nM
[4]
  IC50: > 10 µM

## N#CC[C@H]1C[C@](CC#N)(n2ccc(-c3nc(-c4ccn[nH]4)cc4ncccc34)n2)C1 [Example 22, 2,2′-(trans-1-{3-[7-(1H-pyrazol-5-yl)-1,6-naphthyridin-5-yl]-1H-pyrazol-1-yl}cyclobutane-1,3-diyl)diacetonitrile]
[1]
  IC50: 61 nM
[2]
  IC50: 834 nM
[3]
  IC50: 891 nM
[4]
  IC50: > 10 µM

## Cc1cc(-c2cc3ncccc3c(-c3ccn([C@]4(CC#N)C[C@H](C#N)C4)n3)n2)n[nH]1 [Example 44, cis-3-(cyanomethyl)-3-{3-[7-(5-methyl-1H-pyrazol-3-yl)-1,6-naphthyridin-5-yl]-1H-pyrazol-1-yl}cyclobutanecarbonitrile]
[1]
  IC50: 7 nM
[2]
  IC50: 66 nM
[3]
  IC50: 18 nM
[4]
  IC50: 2.88 µM

## Cc1cc(-c2cc3ncccc3c(-c3ccn(C4(CC#N)CN(CC(F)(F)F)C4)n3)n2)ccn1 [Example 176, [3-{3-[7-(2-methylpyridin-4-yl)-1,6-naphthyridin-5-yl]-1H-pyrazol-1-yl}-1-(2,2,2-trifluoroethyl)azetidin-3-yl]acetonitrile]
[1]
  IC50: 71 nM
[2]
  IC50: 966 nM
[3]
  IC50: 634 nM
[4]
  IC50: > 10 µM

## Cc1cc(-c2nc(-c3cn[nH]c3)cc3ncccc23)nn1[C@]1(CC#N)C[C@@H](C#N)C1 [Example 273, trans-3-(cyanomethyl)-3-{5-methyl-3-[7-(1H-pyrazol-4-yl)-1,6-naphthyridin-5-yl]-1H-pyrazol-1-yl}cyclobutanecarbonitrile]
[1]
  IC50: 49 nM
[2]
  IC50: 786 nM
[3]
  IC50: 311 nM
[4]
  IC50: > 10 µM

## Cn1cc(-c2cc3ncccc3c(-c3ccn(C4(CC#N)CN(S(C)(=O)=O)C4)n3)n2)c(N)n1 [Example 138, [3-{3-[7-(3-amino-1-methyl-1H-pyrazol-4-yl)-1,6-naphthyridin-5-yl]-1H-pyrazol-1-yl}-1-(methylsulfonyl)azetidin-3-yl]acetonitrile]
[1]
  IC50: 8 nM
[2]
  IC50: 382 nM
[3]
  IC50: 21 nM
[4]
  IC50: 3.19 µM

## Cn1cc(-c2cc(-c3cnn(C4(CC#N)CN(CC(F)(F)F)C4)c3)n3ncnc3c2)cn1 [Example 475, [3-{4-[7-(1-methyl-1H-pyrazol-4-yl)[1,2,4]triazolo[1,5-a]pyridin-5-yl]-1H-pyrazol-1-yl}-1-(2,2,2-trifluoroethyl)azetidin-3-yl]acetonitrile]
[1]; JAK Caliper enzyme assay
  IC50: 462 nM
[2]; JAK Caliper enzyme assay
  IC50: 6670 nM
[3]; JAK Caliper enzyme assay
  IC50: 6850 nM
[4]; JAK Caliper enzyme assay
  IC50: > 10 µM

## CS(=O)(=O)N1CC(CC#N)(n2cc(-c3cc(-c4ccc(=O)[nH]c4)cc4ncccc34)nn2)C1 [Example 295, [1-(methylsulfonyl)-3-{4-[7-(6-oxo-1,6-dihydropyridin-3-yl)quinolin-5-yl]-1H-1,2,3-triazol-1-yl}azetidin-3-yl]acetonitrile]
[1]
  IC50: 155 nM
[2]
  IC50: 7720 nM
[3]
  IC50: 2580 nM
[4]
  IC50: > 10 µM

## N#CC[C@]1(n2ncc(-c3cc(-c4cc[nH]n4)cc4ncccc34)n2)C[C@@H](C#N)C1 [Example 303, cis-3-(cyanomethyl)-3-{4-[7-(1H-pyrazol-3-yl)quinolin-5-yl]-2H-1,2,3-triazol-2-yl}cyclobutanecarbonitrile]
[1]
  IC50: 5 nM
[2]
  IC50: 81 nM
[3]
  IC50: 29 nM
[4]
  IC50: 3.1 µM

## N#CC[C@]1(n2ncc(-c3cc(-c4cc(CO)ns4)cc4ncccc34)n2)C[C@H](C#N)C1 [Example 345, trans-3-(cyanomethyl)-3-(4-{7-[3-(hydroxymethyl)-1,2-thiazol-5-yl]quinolin-5-yl}-2H-1,2,3-triazol-2-yl)cyclobutanecarbonitrile]
[1]
  IC50: 249 nM
[2]
  IC50: 3810 nM
[3]
  IC50: 1860 nM
[4]
  IC50: > 10 µM

## CO[C@H]1C[C@@](CC#N)(n2ncc(-c3cc(-c4cc[nH]n4)cc4ncccc34)n2)C1 [Example 304, (cis-3-methoxy-1-{4-[7-(1H-pyrazol-3-yl)quinolin-5-yl]-2H-1,2,3-triazol-2-yl}cyclobutyl)acetonitrile]
[1]
  IC50: 36 nM
[2]
  IC50: 2300 nM
[3]
  IC50: 788 nM
[4]
  IC50: > 10 µM

## N#CC[C@]1(n2ncc(-c3cc(-c4cc5c(cn4)CCN5)cc4ncccc34)n2)C[C@@H](C#N)C1 [Example 380, cis-3-(cyanomethyl)-3-{4-[7-(2,3-dihydro-1H-pyrrolo[3,2-c]pyridin-6-yl)quinolin-5-yl]-2H-1,2,3-triazol-2-yl}cyclobutanecarbonitrile]
[1]; JAK Caliper enzyme assay
  IC50: 194 nM
[2]; JAK Caliper enzyme assay
  IC50: 9390 nM
[3]; JAK Caliper enzyme assay
  IC50: 811 nM
[4]; JAK Caliper enzyme assay
  IC50: > 10 µM

## Cn1cc(-c2cc3ncccc3c(-c3ccn([C@]4(CC#N)C[C@@H](C#N)C4)n3)n2)c(N)n1 [Example 139, trans-3-{3-[7-(3-amino-1-methyl-1H-pyrazol-4-yl)-1,6-naphthyridin-5-yl]-1H-pyrazol-1-yl}-3-(cyanomethyl)cyclobutanecarbonitrile]
[1]
  IC50: 10 nM
[2]
  IC50: 243 nM
[3]
  IC50: 20 nM
[4]
  IC50: 3.72 µM

## CS(=O)(=O)N1CC(CC#N)(n2ccc(-c3nc(-c4cc(O)cc(F)c4)cc4ncccc34)n2)C1 [Example 261, [3-{3-[7-(3-fluoro-5-hydroxyphenyl)-1,6-naphthyridin-5-yl]-1H-pyrazol-1-yl}-1-(methylsulfonyl)azetidin-3-yl]acetonitrile]
[1]
  IC50: 118 nM
[2]
  IC50: > 10000 nM
[3]
  IC50: > 10000 nM
[4]
  IC50: > 10 µM

— patent publication US11254668B2, “Pyrazolo[1,5-A]pyrazin-4-yl and related derivatives” (Pfizer Inc., priority 2017, dated 2022)
